Assay results as given in patent US20080262009A1, “CRYSTALLINE POLYMORPHS OF N-(3-(DIMETHYLAMINO)PROPYL)-4-(4-(3-FLUORO-4-METHOXYPHENYL) PYRIMIDIN-2-YLAMINO) BENZENESULFONAMIDE AS ACETATE SALTS” (Wyeth, priority 2007, published 2008).

Legend:
[1] = Solubility in organic solvents / group 3 solvents; format: physicochemical
Water solubility = experiment: Water solubility
Description: HCl, phosphoric acid, tartaric acid, acetic acid, D-glucoronic acid and succinic acid were used to prepare pharmaceutically acceptable salts of compound 3.

Structure (SMILES)	solubility in THF, DMSO and DMF ([1]; THF, DMSO and DMF)	solubility in group 3 solvents, including water ([1]; group 3 solvents, including water)	Solubility in water (Water solubility; by a thermogravimeteric method)	water solubility (in words) (Water solubility; free base form, general statement)	solubility (Water solubility; water) [µg/mL]
COc1ccc(-c2ccnc(Nc3ccc(S(=O)(=O)NCCCN(C)C)cc3)n2)cc1F [compound 3]	high	low	not detectable	little to no	–
CC(=O)O.COc1ccc(-c2ccnc(Nc3ccc(S(=O)(=O)NCCCN(C)C)cc3)n2)cc1F [acetate salt of compound 3]	–	–	–	–	3500
